According to publication PMC12722920, “Pharmacokinetics and pharmacodynamics of cannabigerol (CBG) in the C57BL/6Crl mouse” (Frontiers in Pharmacology, 2025):
Like-named read-outs stand apart in the source and are kept apart here.

Columns and labels:
C57BL/6Crl mice [1] = test: Open field test (OFT): locomotion and anxiety-like behaviour; format: in vivo; details: for OFT time in the center: compared to the vehicle
Protocol: Catalepsy was assessed in the ring holding assay; mice were positioned with their forepaws grasping onto a 0.5 cm thick ring clamp elevated 5 cm above the testing surface. The duration of time while the ring was held was recorded in seconds, with each trial terminated if the mouse’s forepaw released from the bar, upon turning of the head or body, or after 60 s of immobility. Catalepsy was evaluated three times consecutively, and the average time spent holding the bar was reported as a percent of the maximum possible effect (% MPE, up to 60 s). Internal body temperature was measured via a rectal thermometer. Nociception was determined by assessing tail-flick latency, where mice were restrained with their tails placed ∼1 cm into 52 °C ± 2 °C water. The time (sec) until the tail was removed was measured, with observations ending at 20 s and represented as a % MPE. Locomotion and anxiety-like behaviour were assessed in the OFT. Mice were placed in an open space (90 cm × 90 cm) and recorded for 5 min. Total distance travelled (cm), velocity (cm/sec), time in the centre quadrant (sec), and central quadrant entries were measured with EthoVision XT (Noldus Information Technology Inc., Leesburg, VA).
In Phase I (Part B), after determining the timepoint at which blood CBG concentrations were highest for each respective route of administration, the timing for each measure in the tetrad was adjusted. An assessment was conducted in a new cohort consisting of both male and female mice (n = 4 per sex per route) receiving a dose of 10 mg/kg of CBG via i.v., i.p., or p.o. routes. For those administered with i.v. CBG, the timing was: catalepsy at 5 min, body temperature at 15 min, tail-flick latency at 20 min, and OFT at 25 min post-injection. For i.p. CBG, measurements were taken at 20 min for catalepsy, 25 min for body temperature, 30 min for tail-flick latency, and 35 min for OFT post-injection. For p.o. CBG, data collection was scheduled as follows: catalepsy at 170 min, body temperature at 175 min, tail-flick latency at 180 min, and OFT at 185 min post-injection.

C57BL/6Crl mice [2] = test system: C57BL/6Crl mice; design: method as in Zagzoog et al., 2024; details: THC, ref Zagzoog et al., 2024, cited from earlier work
[3] = ref Zagzoog et al., 2024, cited from earlier work
C57BL/6Crl mice [4] = test system: C57BL/6Crl mice; design: method as in Zagzoog et al., 2024; details: THC, ref Zagzoog et al., 2024, cited from earlier work; remark: listed apart in the source
C57BL/6Crl mice [5] = test system: C57BL/6Crl mice; design: method as in Zagzoog et al., 2024; details: THC, ref Zagzoog et al., 2024, cited from earlier work; remark: listed apart in the source
[6] = THC 10 mg/kg i.v.; ref Zagzoog et al., 2024; cited from earlier work

SMILES: CCCCCc1cc(O)c2c(c1)OC(C)(C)[C@@H]1CCC(C)=C[C@@H]21 [THC, Δ^9-Tetrahydrocannabinol]
- OFT entries to the center (C57BL/6Crl mice [1]; 10 mg/kg i.p., compared to vehicle): entered the center fewer times than their vehicle-treated counterparts
- OFT velocity (C57BL/6Crl mice [1]; 10 mg/kg i.v., 25 min post-administration, male and female mice): reduced velocity compared to vehicle treatment
- OFT time in the center (C57BL/6Crl mice [1]; 10 mg/kg i.v.): Time in the center was reduced
- OFT entries to the center (C57BL/6Crl mice [1]; 10 mg/kg i.v., compared to vehicle): entered the center fewer times than their vehicle-treated counterparts
- OFT entries to the center (C57BL/6Crl mice [1]; 10 mg/kg p.o.): entered the center of the OFT fewer times than vehicle oral gavage mice
- OFT time in the center (C57BL/6Crl mice [1]; 10 mg/kg p.o.): Time in the center was reduced
- ED50 body temperature (C57BL/6Crl mice [2]; both sexes): 7.8 mg/kg
- ED50 body temperature (C57BL/6Crl mice [2]; females): 7.3 mg/kg
- ED50 body temperature (C57BL/6Crl mice [2]; males): 8.3 mg/kg
- Cmax ([3]; 10 mg/kg THC i.p.): 0.377 µg/mL
- C at 10 min (blood concentration 10 min post-administration) ([3]; THC i.v., males): 1,290 ng/mL
- Cmax ([3]; THC p.o.): 0.1495 µg/mL
- p.o. Cmax as percent of i.p. Cmax ([3]; THC): 40%
- ED50 catalepsy (C57BL/6Crl mice [4]; both sexes): 6.9 mg/kg
- ED50 catalepsy (C57BL/6Crl mice [4]; females): 6.0 mg/kg
- ED50 catalepsy (C57BL/6Crl mice [4]; males): 8.6 mg/kg
- ED50 tail-flick latency (C57BL/6Crl mice [5]; both sexes): 4.1 mg/kg
- ED50 tail-flick latency (C57BL/6Crl mice [5]; females): 3.6 mg/kg
- ED50 tail-flick latency (C57BL/6Crl mice [5]; males): 4.9 mg/kg
- mean blood concentration [6]: 0.526 µg/mL
